Results: patent US6287813A, “Antibiotic-based gene regulation system” (Cistronics Cell Technology GmbH, priority 1999, dated 2001)

Target: T1, PIT/PPIR system (Streptomyces coelicolor, UniProt Q9ADN3)
T1 construct: pMF156/pTWIN in CHO cells, PPIR-SEAP or GFP reporter
T1 sequence (Q9ADN3 1-252): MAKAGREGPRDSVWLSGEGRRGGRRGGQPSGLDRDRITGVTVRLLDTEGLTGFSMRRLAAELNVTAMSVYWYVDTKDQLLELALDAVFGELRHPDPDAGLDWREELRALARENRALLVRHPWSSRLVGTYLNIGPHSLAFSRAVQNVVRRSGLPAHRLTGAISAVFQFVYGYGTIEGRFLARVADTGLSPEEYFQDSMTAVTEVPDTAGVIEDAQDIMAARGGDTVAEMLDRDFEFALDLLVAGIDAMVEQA
Assay: SEAP reporter assay, CHO-K1 cotransfected with pMF156 (PIT) and pMF172 (PPIR-SEAP)
Format: cell-based
Experimental: PIT, the fusion protein of Pip and the VP16 C-terminal transactivation domain of Herpes simplex (Triezenberg et al., 1988, Genes Dev. 2, 718-729) was constructed by amplifying the S. coelicolor Pip from pGemT::Epip4 with oligos:
Chinese hamster ovary cells (CHO-K1, ATCC: CCL 61), Baby hamster kidney cells (BHK-21, ATCC: CRL-8544), and HeLa cells (ATCC: CRL-7923) as well as stable cell lines CHO-PIT1, CHO-PIT2, CHO-TWIN195, CHO-TWIN1108 and CHO-PIT1-SEAP were cultured as described before (Fussenegger et al., 1998, Nat. Biotechnol. 16,468-472) in the presence of appropriate antibiotics: G418 400 μg/ml; zeocin 100 μg/ml. Optimized CaPO4 protocols were used for high efficiency transient transfection of all cell lines (id). Transient transfected cells were routinely analyzed after 48 h for GFP or SEAP expression using fluorescence microscopy and p-nitrophenolphosphate-based light absorbance timecourse, respectively, as described before (Fussenegger et al., 1998, Nat. Biotechnol. 16, 468-472; Berger et al., 1988, Gene 66, 1-10 b). For construction of stable CHO-PIT and CHO-TWIN cell lines, CHO-K1 was cotransfected either with pMF156 or pTWIN1 and pSV2neo carrying the G418 resistance gene. CHO-PIT1-SEAP was constructed by cotransfection of pMF172 and pZeoSV2 (Invitrogen). For assessment of dose-response characteristics of PPIR -regulated gene expression, CHO-PIT1-SEAP were cultured at cell densities of 150,000/ml for 48 at various PI concentrations. The mixed populations were cloned using FACS-mediated single-cell-sorting (FACStar^Plus; Beckton Dickinson). Gel retardation assay were performed as described (Salah-Bey et al., 1995, supra) using Pip purified from an overproducing strain of E. coli. Pip (0.02 pmol) was titrated with a range of antibiotic concentrations in a reaction volume of 20 μl. Protein solutions were pre-incubated at room temperature for 15 min. in the absence or presence of PI or its derivative quinupristin in a buffer containing 10 mM Tris (pH 7.8), 10 mM MgCl2, 300 mM NaCl, 2 mM DTT and 10% glycerol. An EcoRI-HindII PPTR fragment (0.02 pmol) containing three Pip binding sites (radiolabelled using α-^32 P)dATP was added and incubated for 15 min. To minimize nonspecific protein binding and increase protein stability, 2 μg of poly dIdC and 20 μg BSA were included in the incubation mix. Protein-DNA complexes were separated on 5% polyacrylamide,TBE gels and visualized by autoradiography.
Five different sources of pristinamycin were used: The two therapeutic forms Pyostacin™ and Synercid™, pristinamycin discs, and the single compounds pristinamycin I (PI) and pristinamycin II (PII). Pyostacin™ pills (500 mg) were ground in a mortar and solubilized in DMSO or water at a stock concentration of 50 mg/ml. Synercid™ (RP 59500; Lot Nr. CB06253) was provided by Aventis in injection-ready vials containing 500 mg lyophilized antibiotic which was reconstituted in 5 ml of 5% glucose solution and frozen at -20° C. Individual pristinamycin compounds PI and PII (identical to virginiamycin M1 (VM1); Sigma ref. V2753) were solubilized in DMSO at a concentration of 50 mg/ml and kept at -20° C. Antibiotic discs containing 15 μg pristinamycin or virginiamycin (bioMerieux, ref. 54552; bioMerieux, ref. 54612) were soaked in 1 ml cell culture medium at 4i C for up to 24 h. […] The concentration of individual streptogramin components was calculated based on their fixed 70:30 ratio (w/w; PII/VM1 /dalfopristin: PI/VS1 /quinupristin). […]

## pristinamycin I [PI]
+PI (2 μg/ml), 48 hr post transfection, CHO + pMF156 + pMF172
  SEAP readout (slope of the p-nitrophenolphosphate-based light absorbance time courses): 0.03 ± 0.002
CHO-K1, 2 μg/ml
  Downregulation of PIT/PPIR-mediated SEAP expression: effective downregulation
Inducer 2 μg/ml, assayed 48 hr later, no inducer = 100
  SEAP Production (%): 7.90 ± 1.2%
